Counter-ions that a name gives are not always drawn. Like-named read-outs stand apart in the source and are kept apart here.

A short description of series [1]: Effect of composition of food on bioavailability of Drug A in dog. The series is classed as in vivo. The settings on record: dogs; for bioavailability: dog, plasma, po. As for the experimental part:
A solution in which 5 g of starch dispersed in 40 ml of water, 40 ml of egg albumin, and a solution in which 5 g of Gelucire® (44/14) dispersed in 40 ml of water, respectively, were fed to two dogs […] before administration of Drug A. These dogs (8–11 kg, Covance Research Product corporation, MI, U.S.A) were bred in a standard laboratory cage, adjusted for a temperature (22±3° C.) and humidity (50±20%), with feed and water available ad libitum. The dogs were fasted for 18–20 hours prior to this experiment. The test group for ascertaining the effect of foods was provided with foods 1 hour before administration of a drug, and the drug was administered after ingestion of foods. At a previously fixed time after administration, 500 μl of blood was gathered from the cephalic vein using the heparinized syringe, and the blood plasma was separated by a centrifuge, and then the plasma concentration of the drug was measured by HPLC analysis.
A Shiseido Capcell-Pak C18 reverse phase column was used for the drug-detection, employing a Shimadzu HPLC system (Class-LC10A system control software, CBM-10A communication bus module, two LC-10AD pumps, SIL-10AXL autoinjector with sample cooler, SPD-10AV ultraviolet detector). The mobile phase was acetonitrile : 0.1% trifluoroacetic acid /5 mM sodium dodecyl sulfate=47 : 53 and the flow rate was 1 ml/min. Data, obtained after oral administration, was expressed in a graph of drug concentration versus time, and applied to the non-compartment model using Win-Nonlin program (Scientific Consultion Corporation, NC, U.S.A.), whereby pharmacokinetic parameters such as a half-life (t1/2), maximum concentration (Cmax), time of the maximum concentration (Tmax), AUCinf, AUClast, and bioavailability (BA) were calculated. AUC was obtained by applying the trapezoidal rule-extrapolation method, and BA was calculated by using the formula (AUCPO×DoseIV)/(AUCIV×DosePO). The result of the experiment is disclosed in FIG. 1 and TABLE 2.

The target in series [2] is T1, Trypsin (Bos taurus, UniProt P00760).
T1 construct: gene PRSS1
T1 sequence (P00760 24-246): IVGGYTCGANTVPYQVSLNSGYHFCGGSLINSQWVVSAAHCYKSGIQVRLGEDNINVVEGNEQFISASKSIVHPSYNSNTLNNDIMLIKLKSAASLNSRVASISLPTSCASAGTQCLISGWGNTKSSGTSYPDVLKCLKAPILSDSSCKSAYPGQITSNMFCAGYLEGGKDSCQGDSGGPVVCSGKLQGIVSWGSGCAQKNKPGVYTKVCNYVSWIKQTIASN
Put plainly: Measurement of activities of Drug A and its prodrugs to trypsin (chromogenic substrate, Ki). The settings on record: tris buffer pH 7.8, N-benzoyl-Val-Gly-Arg-p-nitroanilide substrate, room temperature; read-out: Trypsin inhibition constant. Type of series: biochemical. As for the experimental part: 140 μl of 0.1 M tris buffer solution (pH 7.8) containing 150 mM NaCl and 0.1% PEG 8000 (PolyEthylene Glycol, Molecular Weight: about 8,000) was pipetted into a microplate. A substrate solution was prepared by dissolving N-benzoyl-Val-Gly-Arg-p-nitroanilide hydro-chloride in DMSO to a concentration of 10 mM, and then diluting the resultant with the above buffer solution to a concentration of 0.5 mM. 20 μl of 0.5 mM substrate solution obtained thus was added to the microplate. An inhibitor solution was prepared by dissolving the inhibitor compound according to the present invention in DMSO to make the concentration of 10 mM, and then diluting the resultant with the above buffer solution to make the concentrations of 100000 nM, 10000 nM, 1000 nM, 100 nM, 10 nM, 1 nM, 0.1 nM, 0.01 nM and 0 nM, respectively. 20 μl of each inhibitor solution was adjusted to whole volume of 180 μl and then added to the microplate.
Trypsin which had been dissolved in 0.1 N HCl solution was added to the above tris buffer, just before the experiment, to make the concentration of 1 μg/ml, and 20 μl of solution obtained thus was added to the microplate containing the reaction solution at the room temperature. The amount of para-nitroaniline produced for 10 minutes after addition of enzymes was monitored by the light. The absorbance was plotted against the reaction time. Such graphs were obtained by performing the above experiment on the various concentrations of inhibitor.
Activities of Drug A and several prodrugs to trypsin were measured by determining the dissociation constant Ki, using the following formula according to the method described in Methods in Enzymology (V.80 p341–361; Biochemistry 27 p2144–2151,1988) Ki=[E]·[I]/[EI] • [E]: concentration of enzyme not bound to inhibitor • [I]: concentration of inhibitor not bound to enzyme • [EI]: concentration of binding product of enzyme and inhibitor
Such dissociation constant can be obtained by reacting with para-nitroanilide, which is chromogenic upon hydrolysis by the action of trypsin, and then measuring the extent of chromogenicity with time by spectroscopy.
The initial velocity, Vi, was obtained from the best-fit slope for the first 30 seconds after the reaction start time for each plot, and then a graph of the concentration of inhibitor versus the inverse of the initial velocity (1/Vi) was constructed. Thereafter, the linear function, which satisfies the graph, was calculated, and then Ki was calculated from the x-intercept of the above function using the enzymatic reaction formula. Km used in this calculation was obtained by changing the concentration of substrate at the constant enzyme concentration of […].

The conditions of series [3]: cited from earlier work.
For series [4], the target named is T1, Trypsin. The settings on record: cited from earlier work.
For series [5] the following is noted: dog, cited from earlier work.
For another series, the target named is thrombin (Homo sapiens, UniProt P00734). The conditions noted are these: cited from earlier work.
The conditions of series [6]: human subjects, oral; cited from earlier work.
For series [7] the following is noted: rats, oral; cited from earlier work.

Consider `N=C(N)c1ccc(CNC(=O)[C@@H]2CCCN2C(=O)[C@H](NCC(=O)O)C(c2ccccc2)c2ccccc2)s1` [Drug A, (2S)-N-{5-[amino(imino)methyl]-2-thienyl}methyl-1-{(2R)-2-[(carboxylmethyl)amino]-3,3-diphenylpropanol}-2-pyrrolidincarboxamide], for which the bioavailability was determined as 43% in series [1] (in fasting state); 20% in series [1] (oral, after intake of Gelucire (lipid)); 13% in series [1] (oral, after intake of egg albumin); 41% in series [1] (oral, after intake of starch). Besides, the “bioavailability after ingestion of foods” value in series [1] (after ingestion of foods) is given as “decreased markedly”. The Ki on Trypsin [2] is 0.0003 µM.
`CC(C)(C)NC(=O)[C@@H]1CN(Cc2cccnc2)CCN1C[C@@H](O)C[C@@H](Cc1ccccc1)C(=O)N[C@H]1c2ccccc2C[C@H]1O` [Indinavir, [1(1S,2R), 5(S)]-2,3,5-trideoxy-N-(2,3-dihydro-2-hydroxy-1H-inden-1-yl)-5-[2-[[(1,1-dimethylethylaminocarbonyl)-4-(3-pyridinylmethyl)-1-piperazinyl]-2-(phenylmethyl)-D-erytho-pentonamide sulfate (1:1) salt]: the “absorption rate when administered together with foods” value in series [3] is reported as “absorption rate decreases”.
As for `CCOC(=O)CN[C@@H](C(=O)N1CCC[C@H]1C(=O)NCc1ccc(/C(N)=N/C(=O)OCC(C)C)s1)C(c1ccccc1)c1ccccc1` [Prodrug 1], the Ki at Trypsin [2] is 0.673 µM.
Still for that read-out and setting: next, `CCOC(=O)CN[C@@H](C(=O)N1CCC[C@H]1C(=O)NCc1ccc(/C(N)=N/OC(C)=O)s1)C(c1ccccc1)c1ccccc1` [Prodrug 2]: 21.3 µM; `CCOC(=O)CN[C@@H](C(=O)N1CCC[C@H]1C(=O)NCc1ccc(/C(N)=N/O)s1)C(c1ccccc1)c1ccccc1` [Prodrug 3]: 5.49 µM; `CCOC(=O)CN[C@@H](C(=O)N1CCC[C@H]1C(=O)NCc1ccc(/C(N)=N/C(=O)OCC2CCCCC2)s1)C(c1ccccc1)c1ccccc1` [Prodrug 4]: 21 µM.
For `CC(=O)N[C@H](Cc1ccccc1)C(=O)N(CC(=O)N[C@@H](CCCN=C(N)N)B(O)O)C1CCCC1` [Prodrug S-18326, Ac-D-Phe-N-cyclopentylglycine-boroArg-OH], the half-maximal inhibitory concentration (IC50) (commonly the point on the concentration scale where inhibition reaches its midpoint) at Trypsin [4] was 20 nM; at thrombin, 3.6 nM. In addition, the bioavailability in series [5] (after meals) is reported as 6%; in series [5] (fasting state), 27%.
On to `NCCCC[C@H](NC(=O)C1(C(=O)NCCc2ccccc2)CCCC1)B(O)O` [Prodrug S-31922, 5-amino-1-R-(1phenethyl-carbamoyl-cyclopentanecaraboxamide) pentyl boronic acid], for which the IC50 on Trypsin [4] is 340 nM; on thrombin, 43 nM. For the same compound, the bioavailability in series [5] (after meals) is reported as 22%; in series [5] (fasting state) it was 36%.
`N=C(N)NCCCC(C=O)NC(=O)C1CCCN1C(=O)C1NCCC2CCCCC21` (stereo not drawn) [R-Piq-Pro-Arg-H]: the “bioavailability after intake of foods” value in series [6] is recorded as “decreases remarkably”. Moreover, in series [7], the “bioavailability after administration of foods” value is listed as “decreases remarkably”.

These data come from patent US7097967B2, “Method of predicting drug-food interaction” (LG Life Sciences Ltd., priority 2002, dated 2006).
